Source: US20210115494A1, “Improved method for measurement of microbial biomass” (Mycometer A/S, priority 2018, published 2021)

How the values were obtained:
Type in all cases: biochemical
[1] = system: NAHA activity from Penicillium crysogenum; assay: NAHA activity assay, Penicillium crysogenum; settings: Penicillium chrysogenum
Procedure: (§1) In order to determine NAHA activity in different samples, the technology in WO 98/033934 was employed: A sample containing a dried or freeze dried organism is added to a buffer solution containing 4-Methylumbelliferyl N-acetyl-β-D-glucosaminide in a concentration of 20 μM. The reaction-time is varied depending on the ambient temperature and according to a reaction-time/temperature data sheet previously developed for fungal NAHA activity at various temperatures, and is 30 minutes at 23° C. The resulting fluorescence formed during the reaction time is monitored in a calibrated fluorometer.
(§2) Experiments were conducted where varying concentrations of AgNO3 was added to an analysis substrate. Furthermore, the experiments where performed on dried or freeze dried materials where both intact and fragmented cells are to be expected to be present.
(§3) Experiments analogous to those in example 1 were carried out, but instead of using non-specific inhibitors, the effect of different concentrations of DNJNAc on the NAHA activity in various biomass containing samples was investigated.

[2] = system: NAHA activity from Cladosporium sphaerospermum; assay: NAHA activity assay, Cladosporium sphaerospermum; settings: Chladosporium sphaerosperm
Procedure: as §1, §2, §3

[3] = system: NAHA activity from Penicillium commune; assay: NAHA activity assay, Penicillium commune
Procedure: as §1, §3

[4] = system: NAHA activity from Aspergillus fumigatus; assay: NAHA activity assay, Aspergillus fumigatus (Table 4b, state not given)
Procedure: as §1, §3

CC(=O)N[C@H]1CN[C@H](CO)[C@@H](O)[C@@H]1O [DNJNAc, 2-Acetamido-1,2-dideoxynojirimycin]
NAHA activity, 0 μM DNJNAc = 100% ([1]; DNJNAc 24.5 μM): 89%
NAHA activity, 0 μM DNJNAc = 100% ([1]; DNJNAc 49 μM): 86%
NAHA activity, 0 μM DNJNAc = 100% ([1]; DNJNAc 98 μM): 74%
NAHA activity, 0 μM DNJNAc = 100% ([1]; DNJNAc 196 μM): 76%
NAHA activity, 0 μM DNJNAc = 100% ([2]; DNJNAc 24.5 μM): 43%
NAHA activity, 0 μM DNJNAc = 100% ([2]; DNJNAc 49 μM): 32%
NAHA activity, 0 μM DNJNAc = 100% ([2]; DNJNAc 98 μM): 49%
NAHA activity, 0 μM DNJNAc = 100% ([2]; DNJNAc 196 μM): 21%
NAHA activity, 0 μM DNJNAc = 100% ([3]; DNJNAc 24.5 μM): 76%
NAHA activity, 0 μM DNJNAc = 100% ([3]; DNJNAc 49 μM): 62%
NAHA activity, 0 μM DNJNAc = 100% ([3]; DNJNAc 98 μM): 45%
NAHA activity, 0 μM DNJNAc = 100% ([3]; DNJNAc 196 μM): 22%
NAHA activity, 0 μM DNJNAc = 100% ([4]; DNJNAc 24.5 μM): 122%
NAHA activity, 0 μM DNJNAc = 100% ([4]; DNJNAc 49 μM): 110%
NAHA activity, 0 μM DNJNAc = 100% ([4]; DNJNAc 98 μM): 89%
NAHA activity, 0 μM DNJNAc = 100% ([4]; DNJNAc 196 μM): 88%
